According to the supplement of paper PMC12592484:

What was measured:
Assay in all cases: drug sensitivity score (DSS2, normalised partial AUC of dose-response, 72 h CellTiter-Glo viability) (DSS (dimensionless)); higher = more sensitive (stronger growth inhibition / cytotoxicity); extreme values may be limits of the assay
[1] = test system: CAF#4 (primary prostate cancer-associated fibroblasts of iCAF-like type)
Summary of the method: (§1)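 In BREEZE, the drug sensitivity score was derived as a partial area under a fitted logistic dose–response curve over the log of that curve's upper asymptote; a higher score marks a more sensitive response. The input came from low-passage primary prostate cancer-associated fibroblasts, PF179T, WPMY-1, LNCaP and 22Rv1 cells, each seeded into 384-well plates with compounds pre-dispensed at five doses spanning a 10,000-fold range. CellTiter-Glo 2.0 luminescence after 72 h gave viability, which was normalized to vehicle and positive-control wells.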

[2] = test system: PF179T
Summary of the method: as §1

[3] = test system: CAF#5 (primary prostate cancer-associated fibroblasts of myCAF-like type)
Summary of the method: as §1

[4] = test system: CAF#3 (primary prostate cancer-associated fibroblasts of myCAF-like type)
Summary of the method: as §1

[5] = test system: 22Rv1
Summary of the method: as §1

[6] = test system: WPMY-1
Summary of the method: as §1

[7] = test system: LNCAP
Summary of the method: as §1

[8] = test system: CAF#1 (primary prostate cancer-associated fibroblasts of myCAF-like type)
Summary of the method: as §1

[9] = test system: CAF#7 (primary prostate cancer-associated fibroblasts of myCAF-like type)
Summary of the method: as §1

[10] = test system: CAF#6 (primary prostate cancer-associated fibroblasts of iCAF-like type)
Summary of the method: as §1

[11] = test system: CAF#2 (primary prostate cancer-associated fibroblasts of iCAF-like type)
Summary of the method: as §1

Row | Compound | drug sensitivity score [1] | drug sensitivity score [2] | drug sensitivity score [3] | drug sensitivity score [4] | drug sensitivity score [5] | drug sensitivity score [6] | drug sensitivity score [7] | drug sensitivity score [8] | drug sensitivity score [9] | drug sensitivity score [10] | drug sensitivity score [11]
1 | CC[C@@H]1[C@H](F)C(=O)N[C@@H]1COc1nccc2cc(C(N)=O)c(OC)cc12 (tested concentration range 1-10000 nM) | 0 | 0 | 0 | 0 | 1.4 | 0 | 1.6 | 0 | 0.1 | 0 | 0.4
2 | C[C@@]1(C(=O)Nc2ccc(F)nc2)CCCN1c1nc(Nc2cc(C3CC3)n[nH]2)c2cccn2n1 (tested concentration range 1-10000 nM) | 7.9 | 9.4 | 10.7 | 9 | 12.4 | 15.6 | 6.4 | 10.4 | 10.5 | 8.7 | 12.2
3 | C[C@H]1C[C@@H](n2c(Nc3ccc(OC(F)(F)F)cc3)nc3cc(CCC(=O)O)ccc32)CC(C)(C)C1 (tested concentration range 1-10000 nM) | 0 | 0 | 0 | 0 | 0 | 0 | 0.4 | 0 | 0 | 0 | 0
4 | Cn1cc(-c2ccc(F)c(C(F)(F)F)c2)nc1C1CCN(c2ncnc3[nH]ncc23)CC1 (tested concentration range 1-10000 nM) | 1.4 | 0 | 1.5 | 0 | 2.3 | 0 | 7.1 | 1.3 | 0.4 | 0.5 | 1
5 | O=C1Cc2cc(C(=O)NC3C[C@H]4CC[C@@H](C3)N4S(=O)(=O)CC3CCN(CCCC(F)(F)F)CC3)c(Cl)cc2N1 (some centres not stated) (tested concentration range 1-10000 nM) | 0 | 0.5 | 0 | 0 | 0 | 0 | 0 | 0 | 0 | 0 | 0
6 | C[C@@H]1CN(CC(=O)Nc2ccc3c(c2)Cc2cccc(-c4cc(=O)cc(N5CCOCC5)o4)c2S3)C[C@H](C)O1 (tested concentration range 2.5-25000 nM) | 0 | 0.4 | 0 | 0.2 | 2.5 | 4.2 | 6.7 | 0 | 0 | 0.2 | 0.4
7 | NCC(=O)Nc1ccc(-n2nc(C(F)(F)F)cc2-c2ccc3c(ccc4ccccc43)c2)cc1 (tested concentration range 2.5-25000 nM) | 0.8 | 0 | 0 | 0 | 0 | 4.4 | 1.4 | 0.7 | 0 | 0 | 0
8 | CC/C(=C(\c1ccc(O)cc1)c1ccc(OCCN(C)C)cc1)c1ccccc1 [4-hydroxytamoxifen] (tested concentration range 1-10000 nM) | 6.2 | 3.2 | 3.8 | 1.6 | 6.4 | 7.2 | 4.7 | 3.3 | 1.6 | 1.8 | 5.3
9 | Nc1ncnc2c1nc(Cl)n2[C@@H]1O[C@H](CO)[C@@H](O)[C@H]1O [8-chloro-adenosine] (tested concentration range 5-50000 nM) | 9.6 | 9.1 | 6.5 | 3.4 | 15 | 15.7 | 15.1 | 7.4 | 2 | 2.5 | 8.4
10 | COc1cc2c(cc1OCCCN1CCCC1)N=C(N)C21CCC1 [A-366] (tested concentration range 2.5-25000 nM) | 0 | 0.1 | 0 | 0.7 | 6.7 | 4.5 | 5.6 | 0 | 0 | 1.5 | 0
11 | Cc1sc2c(c1C)C(c1ccc(Cl)cc1)=N[C@@H](CC(=O)Nc1ccc(OCCOCCOCCOCCNc3cccc4c3C(=O)N(C3CCC(=O)NC3=O)C4=O)cc1)c1nnc(C)n1-2 (some centres not stated) [ARV-825] (tested concentration range 0-300 nM) | 6.9 | 3.3 | 6.2 | 15.6 | 14.7 | 8.1 | 17.1 | 7.7 | 17.1 | 11.6 | 5.8
12 | CN[C@@H](C)C(=O)N[C@H]1CN(C(=O)CC(C)C)CC[C@H]2CC[C@@H](C(=O)NC(c3ccccc3)c3ccccc3)N2C1=O [AT-406] (tested concentration range 1-10000 nM) | 0 | 0 | 0 | 0 | 0 | 0 | 0 | 0 | 0 | 1.6 | 0
